Results as given in ChEMBL document CHEMBL1201862, “PubChem BioAssay data set” (2004).
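Step 1: Grow cells in 96-well plates. Step 2: Expose to compound for 48 hours at 5 concentrations. Step 3: Interpolate endpoints linearly; if unreached, use highest concentration. GI50: concentration for 50% inhibition of growth.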 Active and inactive are the calls of the source. Cut-off read from the data, not from the text of the source: active = GI50 up to about 1.1 µM and inactive = higher.

Experiments:
Experiment in all cases: inhibition of tumour cell growth, NCI panel, 48 h
786-0 = system: 786-0
DMS-114 = system: DMS-114
EKVX = system: EKVX
HL-60 = system: HL-60
HOP-92 = system: HOP-92
KM12 = system: KM12
MOLT-4 = system: MOLT-4
Malme-3M = system: Malme-3M
NCI-H226 = system: NCI-H226
OVCAR-3 = system: OVCAR-3
SF-295 = system: SF-295
SK-MEL-5 = system: SK-MEL-5
SN12C = system: SN12C
TK-10 = system: TK-10
UACC-257 = system: UACC-257
BT-549 = system: BT-549
DU-145 = system: DU-145
MDA-MB-231 = system: MDA-MB-231
NCI-H522 = system: NCI-H522
NCI/ADR-RES = system: NCI/ADR-RES

| SMILES | GI50 (786-0) | GI50 (DMS-114) | GI50 (EKVX) | GI50 (HL-60) | GI50 (HOP-92) | GI50 (KM12) | GI50 (MOLT-4) | GI50 (Malme-3M) | GI50 (NCI-H226) | GI50 (OVCAR-3) | GI50 (SF-295) | GI50 (SK-MEL-5) | GI50 (SN12C) | GI50 (TK-10) | GI50 (UACC-257) | GI50 (BT-549) | GI50 (DU-145) | GI50 (MDA-MB-231) | GI50 (NCI-H522) | GI50 (NCI/ADR-RES) |
| --- | --- | --- | --- | --- | --- | --- | --- | --- | --- | --- | --- | --- | --- | --- | --- | --- | --- | --- | --- | --- |
| CCc1c(OC(C)=O)c2c(NC3OC(COC(C)=O)C(OC(C)=O)C(OC(C)=O)C3OC(C)=O)nc(SC)nc2oc1=O (stereo not drawn) | > 100 µM (inactive) | > 100 µM (inactive) | > 100 µM (inactive) | > 100 µM (inactive) | > 100 µM (inactive) | > 100 µM (inactive) | > 100 µM (inactive) | > 100 µM (inactive) | > 100 µM (inactive) | > 100 µM (inactive) | > 100 µM (inactive) | > 100 µM (inactive) | > 100 µM (inactive) | > 100 µM (inactive) | > 100 µM (inactive) | – | – | – | – | – |
| O=C(CC(O)(C(F)(F)F)C(F)(F)F)c1cc(CC(=O)C(O)(C(F)(F)F)C(F)(F)F)cc(CC(=O)C(O)(C(F)(F)F)C(F)(F)F)c1 | 1.79 µM (inactive) | – | 2.24 µM (inactive) | > 10 µM (inactive) | 0.984 µM (active) | 0.512 µM (active) | 4.47 µM (inactive) | 2.01 µM (inactive) | 3.01 µM (inactive) | 0.454 µM (active) | 1.05 µM (active) | 1.57 µM (inactive) | 1.41 µM (inactive) | 2.4 µM (inactive) | 1.95 µM (inactive) | 1.71 µM (inactive) | 1.97 µM (inactive) | 1.64 µM (inactive) | 1.14 µM (inactive) | 1.85 µM (inactive) |
| CNC(=O)C1CCc2nnc(-c3ccccc3)n21 (stereo not drawn) | > 100 µM (inactive) | > 100 µM (inactive) | 55.2 µM (inactive) | > 100 µM (inactive) | – | > 100 µM (inactive) | > 100 µM (inactive) | > 100 µM (inactive) | > 100 µM (inactive) | > 100 µM (inactive) | – | > 100 µM (inactive) | > 100 µM (inactive) | > 100 µM (inactive) | > 100 µM (inactive) | – | – | – | > 100 µM (inactive) | – |
| CN(C)/C(F)=P\C(F)(F)F (stereo not drawn) | > 100 µM (inactive) | > 100 µM (inactive) | > 100 µM (inactive) | > 100 µM (inactive) | > 100 µM (inactive) | > 100 µM (inactive) | > 100 µM (inactive) | > 100 µM (inactive) | > 100 µM (inactive) | – | > 100 µM (inactive) | > 100 µM (inactive) | > 100 µM (inactive) | > 100 µM (inactive) | > 100 µM (inactive) | – | – | – | > 100 µM (inactive) | – |
| CN(C)CCn1cnc2ncccc2c1=O | > 100 µM (inactive) | 53.1 µM (inactive) | > 100 µM (inactive) | – | > 100 µM (inactive) | > 100 µM (inactive) | > 100 µM (inactive) | > 100 µM (inactive) | > 100 µM (inactive) | > 100 µM (inactive) | > 100 µM (inactive) | > 100 µM (inactive) | > 100 µM (inactive) | > 100 µM (inactive) | – | – | – | – | > 100 µM (inactive) | – |
| O=C(/C=C/c1ccc(Cl)cc1)c1ccccc(=O)c1O | 1.18 µM (inactive) | – | 1.93 µM (inactive) | 0.516 µM (active) | 3.54 µM (inactive) | 1.53 µM (inactive) | 0.798 µM (active) | 1.33 µM (inactive) | 1.41 µM (inactive) | 3.64 µM (inactive) | 1.22 µM (inactive) | 0.621 µM (active) | 0.643 µM (active) | 4.55 µM (inactive) | 2.49 µM (inactive) | 2.3 µM (inactive) | 2.61 µM (inactive) | 1.44 µM (inactive) | 5.42 µM (inactive) | 0.36 µM (active) |
| O=C(NC1CCCC1=O)c1ccccc1 (stereo not drawn) | > 100 µM (inactive) | > 100 µM (inactive) | > 100 µM (inactive) | > 100 µM (inactive) | > 100 µM (inactive) | > 100 µM (inactive) | > 100 µM (inactive) | > 100 µM (inactive) | 98.9 µM (inactive) | > 100 µM (inactive) | > 100 µM (inactive) | > 100 µM (inactive) | > 100 µM (inactive) | > 100 µM (inactive) | > 100 µM (inactive) | – | – | – | – | – |
| CC(=O)Nc1ccc(/C=C/C(=O)c2sc(-c3nc(C)c(C(=O)/C=C/c4ccc(NC(C)=O)cc4)s3)nc2C)cc1 | > 100 µM (inactive) | > 100 µM (inactive) | > 100 µM (inactive) | > 100 µM (inactive) | – | > 100 µM (inactive) | > 100 µM (inactive) | > 100 µM (inactive) | > 100 µM (inactive) | > 100 µM (inactive) | > 100 µM (inactive) | – | > 100 µM (inactive) | > 100 µM (inactive) | > 100 µM (inactive) | – | – | – | > 100 µM (inactive) | – |
| OC1(c2cccs2)c2cccc(Cl)c2C(O)(c2cccs2)c2c(Cl)cccc21 (stereo not drawn) | 34.4 µM (inactive) | – | > 100 µM (inactive) | > 100 µM (inactive) | 93.1 µM (inactive) | > 100 µM (inactive) | > 100 µM (inactive) | 80.2 µM (inactive) | > 100 µM (inactive) | > 100 µM (inactive) | 33.1 µM (inactive) | > 100 µM (inactive) | 93.8 µM (inactive) | > 100 µM (inactive) | > 100 µM (inactive) | 35.6 µM (inactive) | > 100 µM (inactive) | 18.5 µM (inactive) | 96.6 µM (inactive) | 63.5 µM (inactive) |
| Oc1ccc2ccccc2c1/N=N/c1ccc(Br)cc1 | > 100 µM (inactive) | – | 36.2 µM (inactive) | > 100 µM (inactive) | 35.3 µM (inactive) | 77.6 µM (inactive) | > 100 µM (inactive) | 66.1 µM (inactive) | 66.7 µM (inactive) | 86.9 µM (inactive) | 28.9 µM (inactive) | > 100 µM (inactive) | > 100 µM (inactive) | 59.6 µM (inactive) | > 100 µM (inactive) | > 100 µM (inactive) | > 100 µM (inactive) | > 100 µM (inactive) | > 100 µM (inactive) | > 100 µM (inactive) |
| Brc1ccc(-c2cc3c(cc2C2SCCS2)OCO3)cc1 | 26.9 µM (inactive) | 23.2 µM (inactive) | 10.7 µM (inactive) | 15.4 µM (inactive) | – | 39.4 µM (inactive) | 13.4 µM (inactive) | 45.1 µM (inactive) | 8.17 µM (inactive) | 16.6 µM (inactive) | 28.2 µM (inactive) | 23.3 µM (inactive) | 29 µM (inactive) | 31.5 µM (inactive) | 30 µM (inactive) | – | – | – | 10.9 µM (inactive) | – |
| COc1ccc2c(c1)-c1nc(=O)n(CCCN(C)C)c3ccc([N+](=O)[O-])c(c13)N2 | 0.466 µM (active) | – | 0.711 µM (active) | 1.86 µM (inactive) | 1.57 µM (inactive) | 0.873 µM (active) | 0.215 µM (active) | 0.752 µM (active) | 3.81 µM (inactive) | 2.13 µM (inactive) | 0.791 µM (active) | 0.875 µM (active) | 0.752 µM (active) | 1.09 µM (active) | 1.04 µM (active) | 3.85 µM (inactive) | 0.776 µM (active) | 0.561 µM (active) | 0.368 µM (active) | 1.88 µM (inactive) |
| CC(C)(C)c1ccc2c(c1)S(=O)(=O)Nc1ccc(Cl)cc1NS(=O)(=O)c1cc(C(C)(C)C)ccc1OCCOCCOCCO2 | 87.3 µM (inactive) | 36.3 µM (inactive) | 79.6 µM (inactive) | > 100 µM (inactive) | 18.5 µM (inactive) | 75 µM (inactive) | > 100 µM (inactive) | 27.4 µM (inactive) | 57.9 µM (inactive) | 50.6 µM (inactive) | 21.6 µM (inactive) | 28.1 µM (inactive) | 43.5 µM (inactive) | 37.5 µM (inactive) | 55.7 µM (inactive) | – | – | – | – | – |
| COc1ccc(/C=C2\CCc3ccccc3C2=O)cc1OC | 34.5 µM (inactive) | 17.1 µM (inactive) | 51.8 µM (inactive) | – | – | 19.6 µM (inactive) | 21.4 µM (inactive) | 38.3 µM (inactive) | – | 33.6 µM (inactive) | 32.9 µM (inactive) | 15.9 µM (inactive) | 25.2 µM (inactive) | 32.6 µM (inactive) | 18.9 µM (inactive) | – | – | – | 17.1 µM (inactive) | – |
| COC(=O)c1cc(C(=CCC[C@H]2CC[C@@]3(C)C(CCC4C3CC[C@@]3(C)C4CC[C@@H]3C(C)CCCC(C)C)C2)c2cc(Cl)c(OC(=O)c3ccccc3)c(C(=O)OC)c2)cc(Cl)c1OC(=O)c1ccccc1 (stereo partly drawn) | > 10 µM (inactive) | – | > 10 µM (inactive) | > 10 µM (inactive) | > 10 µM (inactive) | > 10 µM (inactive) | > 10 µM (inactive) | > 10 µM (inactive) | > 10 µM (inactive) | > 10 µM (inactive) | > 10 µM (inactive) | > 10 µM (inactive) | > 10 µM (inactive) | > 10 µM (inactive) | > 10 µM (inactive) | > 10 µM (inactive) | > 10 µM (inactive) | > 10 µM (inactive) | > 10 µM (inactive) | > 10 µM (inactive) |
| COC(=O)c1cc(OC)c(OC)c(OC)c1-c1cc2c(cc1C=O)OCO2 | > 10 µM (inactive) | – | > 10 µM (inactive) | > 10 µM (inactive) | > 10 µM (inactive) | > 10 µM (inactive) | > 10 µM (inactive) | > 10 µM (inactive) | > 10 µM (inactive) | > 10 µM (inactive) | > 10 µM (inactive) | > 10 µM (inactive) | > 10 µM (inactive) | > 10 µM (inactive) | > 10 µM (inactive) | > 10 µM (inactive) | > 10 µM (inactive) | > 10 µM (inactive) | > 10 µM (inactive) | > 10 µM (inactive) |
